How the values were obtained:
velvetleaf = test: Test B pre/postemergence velvetleaf; assay type: in vivo, Abutilon theophrasti
In short: (§1)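 Response is a visual 0-to-10 score relative to untreated plants, where 0 means no effect and 10 means complete control, taken twelve to sixteen days after application. Treatments went onto soil at planting and onto foliage of 1- to 4-leaf plants, using a surfactant-containing non-phytotoxic solvent.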

giant foxtail = test: Test B pre/postemergence giant foxtail; assay type: in vivo, Setaria faberii
In short: as §1

wheat = test: Test B pre/postemergence wheat; assay type: in vivo, Triticum aestivum
In short: as §1

wild oat = test: Test B pre/postemergence wild oat; assay type: in vivo, Avena fatua
In short: as §1

purple nutsedge = test: Test B pre/postemergence purple nutsedge; assay type: in vivo, Cyperus rotundus
In short: as §1

sugar beet = test: Test B pre/postemergence sugar beet; assay type: in vivo, Beta vulgaris
In short: as §1

morningglory = test: Test B pre/postemergence morningglory; assay type: in vivo, Ipomoea hederacea
In short: as §1

crabgrass = test: Test B pre/postemergence crabgrass; assay type: in vivo, Digitaria sanguinalis
In short: as §1

rape = test: Test B pre/postemergence rape; assay type: in vivo, Brassica napus
In short: as §1

cocklebur = test: Test B pre/postemergence cocklebur; assay type: in vivo, Xanthium strumarium
In short: as §1

bedstraw = test: Test B pre/postemergence bedstraw; assay type: in vivo, Galium aparine
In short: as §1

pigweed = test: Test B pre/postemergence pigweed; assay type: in vivo, Amaranthus retroflexus
In short: as §1

surinam grass = test: Test B pre/postemergence surinam grass; assay type: in vivo, Brachiaria decumbens
In short: as §1

corn = test: Test B pre/postemergence corn; assay type: in vivo, Zea mays
In short: as §1

blackgrass = test: Test B pre/postemergence blackgrass; assay type: in vivo, Alopecurus myosuroides
In short: as §1

soybean = test: Test B pre/postemergence soybean; assay type: in vivo, Glycine max
In short: as §1

[1] = Preemergence, Rate 62 g/ha, scale of 0 to 10 where 0 is no effect and 10 is complete control
[2] = Preemergence, Rate 125 g/ha, 0 is no effect, 10 is complete control
[3] = Preemergence, Rate 250 g/ha, scale 0 to 10, 0 is no effect, 10 is complete control
[4] = Preemergence, Rate 500 g/ha, scale 0 to 10 (0 no effect, 10 complete control)
[5] = Rate 125 g/ha, Postemergence, scale 0 to 10
[6] = Rate 500 g/ha, Postemergence, scale 0 to 10
[7] = Rate 62 g/ha, Postemergence, scale of 0 to 10 where 0 is no effect and 10 is complete control

SMILES: CC(C)N(C(=O)n1oc(=O)n([C@H](C)c2ccccc2)c1=O)c1ccc(F)cc1 [Compound 179]
- Velvetleaf plant response rating (velvetleaf; [1]): 0
- Velvetleaf plant response rating (0 to 10 scale) (velvetleaf; [2]): 0
- Velvetleaf plant response rating (velvetleaf; [3]): 0
- Velvetleaf plant response rating (velvetleaf; [4]): 5
- Velvetleaf plant response rating (velvetleaf; [5]): 0
- Plant response rating (0 to 10; 0 is no effect, 10 is complete control), Velvetleaf (velvetleaf; Rate 250 g/ha, Postemergence): 0
- Velvetleaf plant response rating (velvetleaf; [6]): 3
- Giant foxtail plant response rating (giant foxtail; [1]): 6
- Giant foxtail plant response rating (0 to 10 scale) (giant foxtail; [2]): 9
- Giant foxtail plant response rating (giant foxtail; [3]): 10
- Giant foxtail plant response rating (giant foxtail; [4]): 10
- Giant foxtail plant response rating (giant foxtail; [7]): 0
- Giant foxtail plant response rating (giant foxtail; [5]): 0
- Plant response rating (0 to 10; 0 is no effect, 10 is complete control), Giant foxtail (giant foxtail; Rate 250 g/ha, Postemergence): 0
- Giant foxtail plant response rating (giant foxtail; [6]): 4
- Wheat plant response rating (wheat; [1]): 0
- Wheat plant response rating (0 to 10 scale) (wheat; [2]): 0
- Wheat plant response rating (wheat; [3]): 0
- Wheat plant response rating (wheat; [4]): 2
- Wheat plant response rating (wheat; [5]): 0
- Plant response rating (0 to 10; 0 is no effect, 10 is complete control), Wheat (wheat; Rate 250 g/ha, Postemergence): 0
- Wheat plant response rating (wheat; [6]): 0
- Wild oats plant response rating (wild oat; [1]): 0
- Wild oats plant response rating (0 to 10 scale) (wild oat; [2]): 0
- Wild oats plant response rating (wild oat; [3]): 0
- Wild oats plant response rating (wild oat; [4]): 3
- Wild oats plant response rating (wild oat; [5]): 0
- Plant response rating (0 to 10; 0 is no effect, 10 is complete control), Wild oats (wild oat; Rate 250 g/ha, Postemergence): 0
- Wild oats plant response rating (wild oat; [6]): 2
- Nutsedge plant response rating (purple nutsedge; [1]): 0
- Nutsedge plant response rating (0 to 10 scale) (purple nutsedge; [2]): 0
- Nutsedge plant response rating (purple nutsedge; [3]): 0
- Nutsedge plant response rating (purple nutsedge; [4]): 10
- Nutsedge plant response rating (purple nutsedge; [7]): 0
- Nutsedge plant response rating (purple nutsedge; [5]): 0
- Plant response rating (0 to 10; 0 is no effect, 10 is complete control), Nutsedge (purple nutsedge; Rate 250 g/ha, Postemergence): 0
- Nutsedge plant response rating (purple nutsedge; [6]): 0
- Sugarbeets plant response rating (sugar beet; [1]): 0
- Sugarbeets plant response rating (0 to 10 scale) (sugar beet; [2]): 0
- Sugarbeets plant response rating (sugar beet; [3]): 0
- Sugarbeets plant response rating (sugar beet; [4]): 0
- Sugarbeets plant response rating (sugar beet; [7]): 0
- Sugarbeets plant response rating (sugar beet; [5]): 0
- Plant response rating (0 to 10; 0 is no effect, 10 is complete control), Sugarbeets (sugar beet; Rate 250 g/ha, Postemergence): 2
- Sugarbeets plant response rating (sugar beet; [6]): 6
- Morningglory plant response rating (morningglory; [1]): 0
- Morningglory plant response rating (0 to 10 scale) (morningglory; [2]): 0
- Morningglory plant response rating (morningglory; [3]): 0
- Morningglory plant response rating (morningglory; [4]): 0
- Morningglory plant response rating (morningglory; [7]): 4
- Morningglory plant response rating (morningglory; [5]): 5
- Plant response rating (0 to 10; 0 is no effect, 10 is complete control), Morningglory (morningglory; Rate 250 g/ha, Postemergence): 5
- Morningglory plant response rating (morningglory; [6]): 5
- Crabgrass plant response rating (crabgrass; [1]): 6
- Crabgrass plant response rating (0 to 10 scale) (crabgrass; [2]): 7
- Crabgrass plant response rating (crabgrass; [3]): 9
- Crabgrass plant response rating (crabgrass; [4]): 9
- Crabgrass plant response rating (crabgrass; [7]): 0
- Crabgrass plant response rating (crabgrass; [5]): 0
- Plant response rating (0 to 10; 0 is no effect, 10 is complete control), Crabgrass (crabgrass; Rate 250 g/ha, Postemergence): 2
- Crabgrass plant response rating (crabgrass; [6]): 9
- Rape plant response rating (rape; [1]): 0
- Rape plant response rating (0 to 10 scale) (rape; [2]): 0
- Rape plant response rating (rape; [3]): 2
- Rape plant response rating (rape; [4]): 4
- Rape plant response rating (rape; [7]): 0
- Rape plant response rating (rape; [5]): 0
- Plant response rating (0 to 10; 0 is no effect, 10 is complete control), Rape (rape; Rate 250 g/ha, Postemergence): 0
- Rape plant response rating (rape; [6]): 2
- Cocklebur plant response rating (cocklebur; [1]): 0
- Cocklebur plant response rating (0 to 10 scale) (cocklebur; [2]): 0
- Cocklebur plant response rating (cocklebur; [3]): 0
- Cocklebur plant response rating (cocklebur; [4]): 0
- Cocklebur plant response rating (cocklebur; [7]): 0
- Cocklebur plant response rating (cocklebur; [5]): 0
- Plant response rating (0 to 10; 0 is no effect, 10 is complete control), Cocklebur (cocklebur; Rate 250 g/ha, Postemergence): 0
- Cocklebur plant response rating (cocklebur; [6]): 1
- Bedstraw plant response rating (bedstraw; [1]): 0
- Bedstraw plant response rating (0 to 10 scale) (bedstraw; [2]): 0
- Bedstraw plant response rating (bedstraw; [3]): 0
- Bedstraw plant response rating (bedstraw; [4]): 0
- Bedstraw plant response rating (bedstraw; [7]): 0
- Bedstraw plant response rating (bedstraw; [5]): 5
- Plant response rating (0 to 10; 0 is no effect, 10 is complete control), Bedstraw (bedstraw; Rate 250 g/ha, Postemergence): 5
- Bedstraw plant response rating (bedstraw; [6]): 10
- Redroot pigweed plant response rating (pigweed; [1]): 7
- Redroot pigweed plant response rating (0 to 10 scale) (pigweed; [2]): 7
- Redroot pigweed plant response rating (pigweed; [3]): 7
- Redroot pigweed plant response rating (pigweed; [4]): 10
- Redroot pigweed plant response rating (pigweed; [7]): 0
- Redroot pigweed plant response rating (pigweed; [5]): 0
- Plant response rating (0 to 10; 0 is no effect, 10 is complete control), Redroot pigweed (pigweed; Rate 250 g/ha, Postemergence): 4
- Redroot pigweed plant response rating (pigweed; [6]): 8
- B. signalgrass plant response rating (surinam grass; [1]): 7
- B. signalgrass plant response rating (0 to 10 scale) (surinam grass; [2]): 8
- B. signalgrass plant response rating (surinam grass; [4]): 9
- B. signalgrass plant response rating (surinam grass; [7]): 0
- B. signalgrass plant response rating (surinam grass; Rate 125 g/ha, Postemergence, scale 0 (no effect) to 10 (complete control)): 0
- Plant response rating, B. signalgrass (surinam grass; Rate 250 g/ha, Postemergence, scale 0 to 10, 0 is no effect, 10 is complete control): 0
- B. signalgrass plant response rating (surinam grass; Rate 500 g/ha, Postemergence, scale 0 to 10, 0 no effect, 10 complete control): 0
- Corn plant response rating (corn; [1]): 0
- Corn plant response rating (0 to 10 scale) (corn; [2]): 0
- Corn plant response rating (corn; [3]): 0
- Corn plant response rating (corn; [4]): 0
- Corn plant response rating (corn; [7]): 0
- Corn plant response rating (corn; [5]): 0
- Plant response rating (0 to 10; 0 is no effect, 10 is complete control), Corn (corn; Rate 250 g/ha, Postemergence): 0
- Corn plant response rating (corn; [6]): 0
- Blackgrass plant response rating (blackgrass; [1]): 0
- Blackgrass plant response rating (0 to 10 scale) (blackgrass; [2]): 0
- Blackgrass plant response rating (blackgrass; [3]): 2
- Blackgrass plant response rating (blackgrass; [4]): 2
- Blackgrass plant response rating (blackgrass; [7]): 0
- Blackgrass plant response rating (blackgrass; [5]): 2
- Plant response rating (0 to 10; 0 is no effect, 10 is complete control), Blackgrass (blackgrass; Rate 250 g/ha, Postemergence): 4
- Blackgrass plant response rating (blackgrass; [6]): 6
- Soybean plant response rating (soybean; [1]): 0
- Soybean plant response rating (0 to 10 scale) (soybean; [2]): 0
- Soybean plant response rating (soybean; [3]): 0
- Soybean plant response rating (soybean; [4]): 0
- Soybean plant response rating (soybean; [7]): 1
- Soybean plant response rating (soybean; [5]): 1
- Plant response rating (0 to 10; 0 is no effect, 10 is complete control), Soybean (soybean; Rate 250 g/ha, Postemergence): 1
- Soybean plant response rating (soybean; [6]): 1
